Data reported in patent US11571426B2, “Compositions for preventing or treating lupus” (CHONG KUN DANG PHARMACEUTICAL CORP., priority 2017, dated 2023).
Marks after values point to notes of the source that are not given here.

Legend:
NZB/W F1 female mice [1] = assay: Survival rate in SLE model mouse; format: in vivo; conditions: for survival rate: 42 weeks after birth
Method: (§1) 80 NZB/W F1 female mice (four weeks old) were purchased from Jackson Laboratory and maintained in an SPF breeding room with five mice per cage. Their weight and urine protein were measured at 24 weeks after birth (right before administration), and then all the animals except those having too much urine protein were divided into groups as shown in a table 2 below such that the urine protein and weight might be evenly distributed among the groups.
(§2) Then, the mice were administered as described in the table 2 once a day for about 19 weeks from 24 weeks after birth to 42 weeks after birth.
An NZB/W F1 female mouse is used as a human SLE disease model. If not treated at all, it is known that this model falls dead all after 12 months or so (about 52 weeks old) due to immune-complex glomerulonephritis.

NZB/W F1 female mice [2] = assay: Serum cytokine level (Milliplex MAP kit) in SLE disease mouse; format: in vivo
Method: as §1, §2
The fresh urine of mice was collected before and after administration every two weeks, while blood collection was performed before and after administration every four weeks. The serum was prepared by centrifugation of the collected blood and then kept at −70° C.
To analyze an effect of the inventive pharmaceutical composition on a change in a serum cytokine level in the SLE disease mouse, a level of GM-CSF, IFN-γ, IL-1α, IL-1β, IL-10, IL-12(p70), IL-15, IL-17a, IL-2, IL-4, IL-6, TNF-α, […], IL-22 and IL-23 in serum was measured by means of a Mouse cytokine Milliplex MAP kit (Merck Millipore), wherein the results thereof were shown in a table 3.
Data obtained from groups were compared using a Kruskal-Wallis (†p<0.05) *p<0.05 versus C group (Mann-Whitney U-test)

NZB/W F1 female mice [3] = assay: Ratio of PreB and ProB cells in marrow (FACS); format: in vivo, mouse; conditions: experimental groups vs control group
Method: as §1, §2
A ratio of pro B (B220+, CD43+) and pre B (B220+, CD43−) cells in mouse marrow cells was measured by means of FACS. To that end, the marrow cells were obtained by flushing a femur with PBS comprising 5% BSA. After that, red blood cells were hemolyzed by means of EL buffer, then washed with FACS buffer (5% BSA/PBS), and then stained with FITC-conjugated anti-mouse CD43 antibodies (ebioscience) and PE-conjugated anti-mouse […] antibodies (ebioscience), such that a ratio of Pre B (B220+CD43-) and Pro B (B220+CD43+) cells was measured.

NZB/W F1 female mice [4] = assay: Serum CXCL10 and CCL2 in SLE disease mouse; format: in vivo; conditions: 36 weeks old
Method: as §1, §2
Meanwhile, when a level of CXCL10 (IFN-inducible protein 10, IP-10) and CCL2 (MCP-1) in serum was measured at 36 weeks old, it was identified that the level of CXCL10 in serum was decreased in all the experimental groups, and the level of CCL2 in serum was decreased in the 50 mg/kg dosed group (FIG. 14).

NZB/W F1 female mice [5] = assay: T cell populations in spleen (FACS) in SLE disease mouse; format: in vivo
NZB/W F1 female mice [6] = assay: Serum chemistry after long-term administration; format: in vivo, mouse; conditions: serum at autopsy
Method: as §1, §2
Data obtained from groups were compared using a Kruskal-Wallis (†p<0.05), *p<0.05 versus C group (Mann-Whitney U-test), ALT: alanine aminotransferase, AST: aspartate aminotransferase, ALP: alkaline phosphatase, TBIL: total bilirubin, TCHOL: total cholesterol, TG: triglyceride, TP: total protein, CPK: creatine phosphokinase)

[7] = group D, 10 mg/kg/day i.p., n =10
[8] = group E, 30 mg/kg/day i.p., n = 14
[9] = group F, 50 mg/kg/day i.p., n = 14
[10] = mice of the experimental groups

O=C(NO)c1ccc(CN(C(=O)N2CCOCC2)c2cccc(C(F)(F)F)c2)cc1 [Compound 374, N-(4-(hydroxycarbamoyl)benzyl)-N-(3-(trifluoromethyl)phenyl)morpholine-4-carboxamide]
survival rate (NZB/W F1 female mice [1]; 10 mg/kg dosed group): about 73.3% | survival rate (NZB/W F1 female mice [1]; 30 mg/kg dosed group): about 93.3% | survival rate (NZB/W F1 female mice [1]; 50 mg/kg dosed group): about 93.3% | survival rate pattern (NZB/W F1 female mice [1]; experimental groups (10, 30, 50 mg/kg), vs negative control): better recovery pattern | GM-CSF in serum (NZB/W F1 female mice [2]; [7]): 2.65 ± 2.65 pg/mL | IFN-γ in serum (NZB/W F1 female mice [2]; [7]): 1.06 ± 1.06 pg/mL | IL17 in serum (NZB/W F1 female mice [2]; [7]): 10.40 ± 3.86 pg/mL | IL22 in serum (NZB/W F1 female mice [2]; [7]): 27.05 ± 9.95 pg/mL | IL-1α in serum (NZB/W F1 female mice [2]; [7]): 371.96 ± 82.72 pg/mL | IL-1β in serum (NZB/W F1 female mice [2]; [7]): 1.27 ± 0.65 pg/mL | IL-2 in serum (NZB/W F1 female mice [2]; [7]): 1.91 ± 1.77 pg/mL | IL-4 in serum (NZB/W F1 female mice [2]; [7]): 1.74 ± 0.19 pg/mL | IL-6 in serum (NZB/W F1 female mice [2]; [7]): 7.21 ± 2.34 pg/mL | IL-10 in serum (NZB/W F1 female mice [2]; [7]): 25.00 ± 8.01 pg/mL | IL-12(70) in serum (NZB/W F1 female mice [2]; [7]): 1.94 ± 1.17 pg/mL | IL-15 in serum (NZB/W F1 female mice [2]; [7]): 184.36 ± 88.58 pg/mL | IL-23 in serum (NZB/W F1 female mice [2]; [7]): 1.96 ± 1.96 pg/mL | TGF-β in serum (NZB/W F1 female mice [2]; [7]): 73356.45 ± 7258.05 pg/mL | TNF-α in serum (NZB/W F1 female mice [2]; [7]): 7.91 ± 2.67 pg/mL | GM-CSF in serum (NZB/W F1 female mice [2]; [8]): 5.32 ± 4.06 pg/mL | IFN-γ in serum (NZB/W F1 female mice [2]; [8]): 6.60 ± 4.07 pg/mL | IL17 in serum (NZB/W F1 female mice [2]; [8]): 21.14 ± 14.59 pg/mL | IL22 in serum (NZB/W F1 female mice [2]; [8]): 13.00 ± 4.40 pg/mL | IL-1α in serum (NZB/W F1 female mice [2]; [8]): 458.40 ± 90.79 pg/mL | IL-1β in serum (NZB/W F1 female mice [2]; [8]): 74.66 ± 70.56 pg/mL | IL-2 in serum (NZB/W F1 female mice [2]; [8]): 9.32 ± 4.75 pg/mL | IL-4 in serum (NZB/W F1 female mice [2]; [8]): 8.60 ± 6.80 pg/mL | IL-6 in serum (NZB/W F1 female mice [2]; [8]): 21.23 ± 13.62 pg/mL | IL-10 in serum (NZB/W F1 female mice [2]; [8]): 56.55 ± 39.16 pg/mL | IL-12(70) in serum (NZB/W F1 female mice [2]; [8]): 74.50 ± 63.63 pg/mL | IL-15 in serum (NZB/W F1 female mice [2]; [8]): 162.41 ± 53.62 pg/mL | IL-23 in serum (NZB/W F1 female mice [2]; [8]): 100.56 ± 100.56 pg/mL | TGF-β in serum (NZB/W F1 female mice [2]; [8]): 58807.36 ± 6685.72 pg/mL | TNF-α in serum (NZB/W F1 female mice [2]; [8]): 16.25 ± 13.46 pg/mL | GM-CSF in serum (NZB/W F1 female mice [2]; [9]): 1.89 ± 1.89 pg/mL | IFN-γ in serum (NZB/W F1 female mice [2]; [9]): 2.07 ± 1.44 pg/mL | IL-1α in serum (NZB/W F1 female mice [2]; [9]): 629.16 ± 128.47 pg/mL | IL-1β in serum (NZB/W F1 female mice [2]; [9]): 3.86 ± 2.09 pg/mL | IL-2 in serum (NZB/W F1 female mice [2]; [9]): 4.09 ± 2.63 pg/mL | IL-4 in serum (NZB/W F1 female mice [2]; [9]): 3.70 ± 1.73 pg/mL | IL-6 in serum (NZB/W F1 female mice [2]; [9]): 5.69 ± 2.39 pg/mL | IL-12(70) in serum (NZB/W F1 female mice [2]; [9]): 15.62 ± 12.09 pg/mL | IL-23 in serum (NZB/W F1 female mice [2]; [9]): 41.34 ± 41.34 pg/mL | TGF-β level (NZB/W F1 female mice [2]; [10]): increased | serum concentration of IL-10 (NZB/W F1 female mice [2]; [10]): decreased | serum concentration of IL-12 (NZB/W F1 female mice [2]; [10]): decreased | serum concentration of IL-15 (NZB/W F1 female mice [2]; [10]): decreased | serum concentration of IL-17 (NZB/W F1 female mice [2]; [10]): decreased | serum concentration of IL-22 (NZB/W F1 female mice [2]; [10]): decreased | serum concentration of TNF-α (NZB/W F1 female mice [2]; [10]): decreased | ratio of pre B and pro B cells in marrow (NZB/W F1 female mice [3]): significant change in the ratio of pre B and pro B cells was not observed | level of CCL2 in serum (NZB/W F1 female mice [4]; 50 mg/kg dosed group): decreased | level of CXCL10 in serum (NZB/W F1 female mice [4]; all the experimental groups): decreased | decrease of ratio of CD138+ cells (NZB/W F1 female mice [5]; 10 mg/kg dosed group, vs negative control): 21.2% | decrease of ratio of CD138+ cells (NZB/W F1 female mice [5]; 30 mg/kg dosed group, vs negative control): 25.2% | decrease of ratio of CD138+ cells (NZB/W F1 female mice [5]; 50 mg/kg dosed group vs negative control): 31.6% | ALP (NZB/W F1 female mice [6]; group D, 10 mg/kg/day i.p.): 187.44 ± 20.75 U/I | ALT (NZB/W F1 female mice [6]; group D, 10 mg/kg/day i.p.): 18.10 ± 1.72 U/I | AST (NZB/W F1 female mice [6]; group D, 10 mg/kg/day i.p.): 44.20 ± 3.19 U/I | Albumin (NZB/W F1 female mice [6]; group D, 10 mg/kg/day i.p.): 1.91 ± 0.14 g/dL | CPK (NZB/W F1 female mice [6]; group D, 10 mg/kg/day i.p.): 86.70 ± 17.99 U/I | Ca (NZB/W F1 female mice [6]; group D, 10 mg/kg/day i.p.): 10.08 ± 0.40 mg/dL | Glucose (NZB/W F1 female mice [6]; group D, 10 mg/kg/day i.p.): 162.56 ± 9.36 mg/dL | TBIL (NZB/W F1 female mice [6]; group D, 10 mg/kg/day i.p.): 0.22 ± 0.03 mg/dL | TCHOL (NZB/W F1 female mice [6]; group D, 10 mg/kg/day i.p.): 193.60 ± 34.55 mg/dL | TG (NZB/W F1 female mice [6]; group D, 10 mg/kg/day i.p.): 241.00 ± 35.25 mg/dL | TP (NZB/W F1 female mice [6]; group D, 10 mg/kg/day i.p.): 4.74 ± 0.20 g/dL | ALP (NZB/W F1 female mice [6]; group E, 30 mg/kg/day i.p.): 155.92 ± 5.53* U/I | ALT (NZB/W F1 female mice [6]; group E, 30 mg/kg/day i.p.): 20.79 ± 0.78* U/I | AST (NZB/W F1 female mice [6]; group E, 30 mg/kg/day i.p.): 55.21 ± 5.17* U/I | Albumin (NZB/W F1 female mice [6]; group E, 30 mg/kg/day i.p.): 2.19 ± 0.11 g/dL | CPK (NZB/W F1 female mice [6]; group E, 30 mg/kg/day i.p.): 84.71 ± 8.39 U/I | Ca (NZB/W F1 female mice [6]; group E, 30 mg/kg/day i.p.): 9.65 ± 0.19 mg/dL | Glucose (NZB/W F1 female mice [6]; group E, 30 mg/kg/day i.p.): 191.29 ± 7.33* mg/dl | TBIL (NZB/W F1 female mice [6]; group E, 30 mg/kg/day i.p.): 0.26 ± 0.03 mg/dL | TCHOL (NZB/W F1 female mice [6]; group E, 30 mg/kg/day i.p.): 140.07 ± 14.48 mg/dL | TG (NZB/W F1 female mice [6]; group E, 30 mg/kg/day i.p.): 240.86 ± 56.19* mg/dl | TP (NZB/W F1 female mice [6]; group E, 30 mg/kg/day i.p.): 5.21 ± 0.19 g/dL | ALP (NZB/W F1 female mice [6]; group F, 50 mg/kg/day i.p.): 153.08 ± 4.78 U/I | ALT (NZB/W F1 female mice [6]; group F, 50 mg/kg/day i.p.): 29.07 ± 3.26* U/I | AST (NZB/W F1 female mice [6]; group F, 50 mg/kg/day i.p.): 59.00 ± 15.00 U/I | Albumin (NZB/W F1 female mice [6]; group F, 50 mg/kg/day i.p.): 2.26 ± 0.09* g/dl | CPK (NZB/W F1 female mice [6]; group F, 50 mg/kg/day i.p.): 125.86 ± 47.35 U/I | Ca (NZB/W F1 female mice [6]; group F, 50 mg/kg/day i.p.): 9.43 ± 0.16 mg/dL | Glucose (NZB/W F1 female mice [6]; group F, 50 mg/kg/day i.p.): 200.23 ± 3.91* mg/dl | TBIL (NZB/W F1 female mice [6]; group F, 50 mg/kg/day i.p.): 0.28 ± 0.04 mg/dL | TCHOL (NZB/W F1 female mice [6]; group F, 50 mg/kg/day i.p.): 129.57 ± 8.98 mg/dL | TG (NZB/W F1 female mice [6]; group F, 50 mg/kg/day i.p.): 183.29 ± 15.00 mg/dL | TP (NZB/W F1 female mice [6]; group F, 50 mg/kg/day i.p.): 5.35 ± 0.16* g/dl
